Values quoted from earlier work in US7604185B2, “Generation of therapeutic microfoam” (BTG International Ltd., priority 2002, dated 2009).

Details: in water at STP

| Structure (SMILES) | Mole Fraction Solubility 10^−3 |
| --- | --- |
| O=C=O [Carbon dioxide] | 61.5 10^−3 |
| [He] [Helium] | 0.7 10^−3 |
| [N-]=[N+]=O [Nitrous oxide] | 43.7 10^−3 |
| O=O [Oxygen] | 2.3 10^−3 |
